Legend:
Assay in all cases: relative viability (nuclei count vs DMSO), 5 days (fraction); higher = more cells survive
Zebularine + Crizotinib = compound: O=c1ncccn1[C@@H]1O[C@H](CO)[C@@H](O)[C@H]1O [Zebularine] + C[C@@H](Oc1cc(-c2cnn(C3CCNCC3)c2)cnc1N)c1c(Cl)ccc(F)c1Cl [Crizotinib] (partner 1 µM)
Method in brief: (§1)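 Each reported value is a median over duplicate plates. It expresses relative viability: treated-well nuclei count divided by vehicle-well nuclei count. Lung cancer cell lines in 1536-well plates were dosed by pin tool a day after seeding, alone with one drug or with a fixed anchor-drug dose plus five library-drug doses (not always all listed) in √10 steps, and nuclei were counted after 5 days.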

Zebularine + Bortezomib = compound: O=c1ncccn1[C@@H]1O[C@H](CO)[C@@H](O)[C@H]1O [Zebularine] + CC(C)C[C@H](NC(=O)[C@H](Cc1ccccc1)NC(=O)c1cnccn1)B(O)O [Bortezomib] (partner 0.002 µM)
Method in brief: as §1

Zebularine + Olaparib = compound: O=c1ncccn1[C@@H]1O[C@H](CO)[C@@H](O)[C@H]1O [Zebularine] + O=C(c1cc(Cc2n[nH]c(=O)c3ccccc23)ccc1F)N1CCN(C(=O)C2CC2)CC1 [Olaparib] (partner 8 µM)
Method in brief: as §1

Zebularine + Decitabine = compound: O=c1ncccn1[C@@H]1O[C@H](CO)[C@@H](O)[C@H]1O [Zebularine] + Nc1ncn([C@H]2C[C@H](O)[C@@H](CO)O2)c(=O)n1 [Decitabine] (partner 2 µM)
Method in brief: as §1

Cell Line: UMC-11
- relative viability (Zebularine + Crizotinib; first compound 1 µM): 0.666
- relative viability (Zebularine + Crizotinib; first compound 3.162 µM): 0.489
- relative viability (Zebularine + Crizotinib; first compound 10 µM): 0.397
- relative viability (Zebularine + Crizotinib; first compound 31.62 µM): 0.374
- relative viability (Zebularine + Crizotinib; first compound 100 µM): 0.343
- relative viability (Zebularine + Bortezomib; first compound 1 µM): 0.728
- relative viability (Zebularine + Bortezomib; first compound 3.162 µM): 0.844
- relative viability (Zebularine + Bortezomib; first compound 10 µM): 0.45
- relative viability (Zebularine + Bortezomib; first compound 31.62 µM): 0.538
- relative viability (Zebularine + Bortezomib; first compound 100 µM): 0.297
- relative viability (Zebularine + Olaparib; first compound 1 µM): 0.407
- relative viability (Zebularine + Olaparib; first compound 3.162 µM): 0.377
- relative viability (Zebularine + Olaparib; first compound 10 µM): 0.346
- relative viability (Zebularine + Olaparib; first compound 31.62 µM): 0.362
- relative viability (Zebularine + Olaparib; first compound 100 µM): 0.293
- relative viability (Zebularine + Decitabine; first compound 1 µM): 0.557
- relative viability (Zebularine + Decitabine; first compound 3.162 µM): 0.604
- relative viability (Zebularine + Decitabine; first compound 10 µM): 0.589
- relative viability (Zebularine + Decitabine; first compound 31.62 µM): 0.586
- relative viability (Zebularine + Decitabine; first compound 100 µM): 0.527
